Assay results from publication PMC7409020, “Tumor-Targeting Peptides: The Functional Screen of Glioblastoma Homing Peptides to the Target Protein FABP3 (MDGI)” (Cancers, 2020).
Square brackets hold non-standard residues; d marks the D form. Peptide text beside a SMILES is read from it.

Molecular target: T1, recombinant FABP3 (Homo sapiens, UniProt P05413)
T1 construct: made in house; host or cells: Escherichia coli BL21 (DE3)
Experiment: Microscale thermophoresis (MST) binding to NT-650-NHS-labeled FABP3
Conditions: 20 nM labeled FABP3; peptide 500 µM to 0.0153 µM, two-fold dilutions; PBS-tween 20 pH 7.4; 25 °C; 40% MST power; 1:1 fit; mean ± SD of three independent experiments
Method: For the binding affinity measurements between the recombinant FABP3 and the A-CooP, its variants, and the control peptide, we used the microscale thermophoresis. […] For these analyses, FABP3 was labeled with an NT-650-NHS fluorescence. Two-fold serially diluted peptides ranging from 500 µM to 0.0153 µM were titrated against a constant FABP3 concentration (20 nM). The binding events were generated following changes in fluorescence (ΔFnorm) against peptide concentrations. Subsequently, the equilibrium dissociation constant (KD) was calculated using a 1:1 fit model from the law of mass action. The MST binding affinities (KD values) are represented in a bar graph (Figure 4B). The smallest KD value equals the best affinity, and the highest value is the lowest affinity. […] The changes in fluorescence (ΔFnorm) were normalized to the bound fraction (Figure 4C). The data points towards 1 were considered bound fractions, while data points less than 1 represented the unbound fractions.
FABP3 was labeled with a second-generation red amine-reactive NT-650-NHS fluorescent dye using the Nanotemper labeling kit (MO-L011; Nanotemper, https://nanotempertech.com/). The protein/dye concentration ratio and volume ratio were 1:3 and 1:1, respectively, in accordance with the manufacturer’s instructions. The actual concentration and degree of labeling (DOL) were determined using the extinction coefficient Ɛ280 = 18450 M^−1 cm^−1 for FABP3 and Ɛ650 =195000 M^−1 cm^−1 for the NT650 dye. Using the correction factor of 0.04 at 280 nm, the DOL for all labeling reactions was calculated according to manufacturer’s instructions. Binding experiments were carried out in a PBS-tween 20 buffer (10 mM Na2HPO4, 140 mM NaCl, 2.7 mM KCl, 0.05% tween 20, pH 7.4). The binding assay was performed with a fixed concentration (20 nM) of the fluorescently labeled FABP3 (target) and two-fold serially diluted decreasing concentrations (500 µM to 0.0153 µM) of the unlabeled A-CooP variants (ligand). The reaction mixture of 16 serial diluents of A-CooP or its analogues and FABP3 were filled into the capillary tubes (Nanotemper, MO-K022) and loaded in the Monolith NT 115 instrument accordingly. All experiments were carried out at 25 °C, 40% MST power (medium), and 60% LED power. Binding assay and measurements were performed in triplicates for each experimental setup.

T1 sequence (P05413 whole entry): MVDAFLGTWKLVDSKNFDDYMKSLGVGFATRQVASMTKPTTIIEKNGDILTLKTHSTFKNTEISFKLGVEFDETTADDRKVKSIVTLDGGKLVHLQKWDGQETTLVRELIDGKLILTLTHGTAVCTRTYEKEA

Row | Structure (SMILES) | Kd [µM]
1 | CC(C)C[C@H](NC(=O)CNC(=O)[C@H](CO)NC(=O)[C@H](CC(C)C)NC(=O)CNC(=O)[C@H](CS)NC(=O)[C@H](C)N)C(=O)NCC(=O)N[C@H](C(=O)N[C@@H](C)C(=O)N[C@@H](CCCCN)C(N)=O)C(C)C [A-CooP-K] (H-ACGLSGLGVAK-NH2) | 0.07 ± 0.01
2 | CC(C)C[C@H](NC(=O)CNC(=O)[C@H](CO)NC(=O)[C@H](CC(C)C)NC(=O)CNC(=O)[C@H](CS)NC(=O)[C@H](C)N)C(=O)NCC(=O)N[C@H](C(=O)N[C@@H](C)C(N)=O)C(C)C [A-CooP] (H-ACGLSGLGVA-NH2) | 2.18 ± 1.15
3 | CC(C)C[C@H](NC(=O)CNC(=O)[C@H](CO)NC(=O)[C@H](CC(C)C)NC(=O)[C@H](C)NC(=O)[C@H](CS)NC(=O)[C@H](C)N)C(=O)NCC(=O)N[C@H](C(=O)N[C@@H](C)C(N)=O)C(C)C [A-[Ala^2]CooP] (H-ACALSGLGVA-NH2) | 0.09 ± 0.07
4 | CC(C)C[C@H](NC(=O)CNC(=O)[C@H](CO)NC(=O)[C@H](C)NC(=O)CNC(=O)[C@H](CS)NC(=O)[C@H](C)N)C(=O)NCC(=O)N[C@H](C(=O)N[C@@H](C)C(N)=O)C(C)C [A-[Ala^3]CooP] (H-ACGASGLGVA-NH2) | 0.25 ± 0.14
5 | CC(C)C[C@H](NC(=O)CNC(=O)[C@H](CS)NC(=O)[C@H](C)N)C(=O)N[C@@H](CO)C(=O)NCC(=O)N[C@@H](C)C(=O)NCC(=O)N[C@H](C(=O)N[C@@H](C)C(N)=O)C(C)C [A-[Ala^6]CooP] (H-ACGLSGAGVA-NH2) | 0.19 ± 0.03
6 | CC(C)C[C@H](NC(=O)CNC(=O)[C@H](CO)NC(=O)[C@H](CC(C)C)NC(=O)CNC(=O)[C@H](CS)NC(=O)[C@H](C)N)C(=O)N[C@@H](C)C(=O)N[C@H](C(=O)N[C@@H](C)C(N)=O)C(C)C [A-[Ala^7]CooP] (H-ACGLSGLAVA-NH2) | 133 ± 75
7 | CC(C)C[C@H](NC(=O)CNC(=O)[C@H](CO)NC(=O)[C@H](CC(C)C)NC(=O)CNC(=O)[C@H](CS)NC(=O)[C@H](C)N)C(=O)NCC(=O)N[C@@H](C)C(=O)N[C@@H](C)C(N)=O [A-[Ala^8]CooP] (H-ACGLSGLGAA-NH2) | 0.12 ± 0.05
8 | CC(C)C[C@H](NC(=O)CNC(=O)[C@H](CO)NC(=O)[C@H](CC(C)C)NC(=O)CNC(=O)[C@H](CS)NC(=O)[C@H](C)NC(=O)[C@@H](N)CCCCN)C(=O)NCC(=O)N[C@H](C(=O)N[C@@H](C)C(N)=O)C(C)C [KA-CooP] (H-KACGLSGLGVA-NH2) | 0.63 ± 0.13
9 | CC(C)C[C@@H](NC(=O)CNC(=O)[C@H](NC(=O)[C@@H](C)N)C(C)C)C(=O)NCC(=O)N[C@H](CO)C(=O)N[C@H](CC(C)C)C(=O)NCC(=O)N[C@H](CS)C(=O)N[C@H](C)C(N)=O [RI-A-CooP] (H-[dA][dV]G[dL]G[dS][dL]G[dC][dA]-NH2) | 24 ± 13
